# Measured values published in US20020137929A1, “1 - (3-heterocyclylphenyl) isothiourea, -isourea, -guanidine and -amidine herbicidal agents” (Intellectual Property Department, BASF Aktiengesellschaft, priority 1998, published 2002).
# What was measured:
# [1] = system: TRZAWR (Wheat, Winter, cv Riband); assay: Preemergence herbicidal evaluation; assay type: in vivo, Triticum aestivum; settings: rated 4-5 weeks after treatment
# Procedure, shortened: (§1)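 Test compound, dissolved in aqueous acetone, was sprayed over planted soil cups at an equivalent of about 0.0156 to 0.500 kg/ha; seeds had been mixed with potting soil. Greenhouse growth followed, with visual 0-9 scoring of injury at four to five weeks.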
# SETVI (Foxtail, Green) [2] = assay: Postemergence herbicidal evaluation; assay type: in vivo, Setaria viridis; settings: postemergence
# Procedure, shortened: (§2)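 First, seedlings were raised for around two weeks. Next, test material in 50/50 acetone/water containing 0.5% TWEEN 20 was sprayed through a nozzle at 40 psi, equivalent to about 0.0156–0.500 kg/ha. Finally, after 4–5 weeks in the greenhouse, plants were rated 0–9.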
# ECHCG (Barnyardgrass) = assay: Preemergence herbicidal evaluation; assay type: in vivo, Echinochloa crus-galli; settings: rated 4-5 weeks after treatment
# Procedure, shortened: as §1
# CYPIR (Rice Flatsedge) [3] = assay: Postemergence weed control under flooded paddy conditions; assay type: in vivo, Cyperus iria; settings: postemergence weeds, rated 3 to 4 weeks after treatment
# Procedure, shortened: (§3)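 Herbicidal effect is judged by eye on a 0–9 scale versus control, 3–4 weeks after dosing. Dosing is into flood water kept 1.5–3 cm over the soil, at about 0.0313–0.500 kg/ha in aqueous/acetone 50/50 v/v, on 3–5 cm weeds and 1.5–2.5-leaf rice seedlings.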
# ZEAMX (Corn, Field) [4] = assay: Postemergence herbicidal evaluation; assay type: in vivo, Zea mays; settings: postemergence
# Procedure, shortened: as §2
# ZEAMX (Corn, Field) [5] = assay: Preemergence herbicidal evaluation; assay type: in vivo, Zea mays; settings: rated 4-5 weeks after treatment
# Procedure, shortened: as §1
# CYPSE (Flatsedge) [6] = assay: Postemergence weed control under flooded paddy conditions; assay type: in vivo, Cyperus serotinus; settings: postemergence weeds, rated 3 to 4 weeks after treatment
# Procedure, shortened: as §3
# ORYSAT (Rice, Tebonnet) = assay: Postemergence herbicidal evaluation; assay type: in vivo, Oryza sativa, (L.) Tebonnet; settings: postemergence
# Procedure, shortened: as §2
# [7] = system: ECHORC (Watergrass (Calif.)); assay: Postemergence weed control under flooded paddy conditions; assay type: in vivo, Echinochloa oryzoides; settings: postemergence weeds, rated 3 to 4 weeks after treatment
# Procedure, shortened: as §3
# SETVI (Foxtail, Green) [8] = assay: Preemergence herbicidal evaluation; assay type: in vivo, Setaria viridis; settings: rated 4-5 weeks after treatment
# Procedure, shortened: as §1
# [9] = system: SAGPY (Arrowhead (Pygmaea)); assay: Postemergence weed control under flooded paddy conditions; assay type: in vivo, Sagittaria pygmaea; settings: postemergence weeds, rated 3 to 4 weeks after treatment
# Procedure, shortened: as §3
# CYPSE (Flatsedge) [10] = assay: Preemergence weed control under flooded paddy conditions; assay type: in vivo, Cyperus serotinus; settings: rated 3-4 weeks after treatment
# Procedure, shortened: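 Values are visual 0-9 scores against a control for a preemergence application into paddy flood water at about 0.0313 to 0.500 kg/ha. Greenhouse duration was three to four weeks.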
# CYPIR (Rice Flatsedge) [11] = assay: as above; assay type: in vivo, Cyperus iria; settings: rated 3-4 weeks after treatment
# Procedure, shortened: (§4)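 Ratings on a 0-9 visual scale cover stand, vigor, malformation, size, chlorosis and overall appearance relative to a control, taken three to four weeks post-treatment. Application was into flood water over freshly sown silt loam at roughly 0.0313 to 0.500 kg/ha.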
# [12] = system: ECHORC (Watergrass (Calif.)); assay: as above; assay type: in vivo, Echinochloa oryzoides; settings: rated 3-4 weeks after treatment
# Procedure, shortened: as §4
smiles,measurement,setting,value
Cn1c(C(F)(F)F)cc(=O)n(-c2cc(N=C3SCC(=O)N3C3CCOC3=O)c(Cl)cc2F)c1=O (stereo not shown) [Compound 73],Preemergence herbicidal rating TRZAWR,[1]; rate 0.0156 kg/ha,0.0
same,Preemergence herbicidal rating TRZAWR,[1]; rate 0.0313 kg/ha,0.0
same,Preemergence herbicidal rating TRZAWR,[1]; rate 0.0625 kg/ha,1.0
same,Preemergence herbicidal rating TRZAWR,[1]; rate 0.1250 kg/ha,3.0
same,Preemergence herbicidal rating TRZAWR,[1]; rate 0.2500 kg/ha,4.0
same,SETVI herbicidal rating,"SETVI (Foxtail, Green) [2]; rate 0.0158 kg/ha",1.0
same,SETVI herbicidal rating,"SETVI (Foxtail, Green) [2]; rate 0.0315 kg/ha",2.0
same,SETVI herbicidal rating,"SETVI (Foxtail, Green) [2]; rate 0.0630 kg/ha",7.0
same,Preemergence herbicidal rating ECHCG,ECHCG (Barnyardgrass); rate 0.0156 kg/ha,0.0
same,Preemergence herbicidal rating ECHCG,ECHCG (Barnyardgrass); rate 0.0313 kg/ha,0.0
same,Preemergence herbicidal rating ECHCG,ECHCG (Barnyardgrass); rate 0.0625 kg/ha,0.0
same,Preemergence herbicidal rating ECHCG,ECHCG (Barnyardgrass); rate 0.1250 kg/ha,0.0
same,Preemergence herbicidal rating ECHCG,ECHCG (Barnyardgrass); rate 0.2500 kg/ha,4.0
same,Herbicidal rating CYPIR,CYPIR (Rice Flatsedge) [3]; Rate 0.1250 kg/ha,0.0
same,Herbicidal rating CYPIR,CYPIR (Rice Flatsedge) [3]; Rate 0.2500 kg/ha,6.0
same,ZEAMX herbicidal rating,"ZEAMX (Corn, Field) [4]; rate 0.0158 kg/ha",4.5
same,ZEAMX herbicidal rating,"ZEAMX (Corn, Field) [4]; rate 0.0315 kg/ha",4.5
same,ZEAMX herbicidal rating,"ZEAMX (Corn, Field) [4]; rate 0.0630 kg/ha",5.0
same,Preemergence herbicidal rating ZEAMX,"ZEAMX (Corn, Field) [5]; rate 0.0156 kg/ha",0.0
same,Preemergence herbicidal rating ZEAMX,"ZEAMX (Corn, Field) [5]; rate 0.0313 kg/ha",0.0
same,Preemergence herbicidal rating ZEAMX,"ZEAMX (Corn, Field) [5]; rate 0.0625 kg/ha",1.0
same,Preemergence herbicidal rating ZEAMX,"ZEAMX (Corn, Field) [5]; rate 0.1250 kg/ha",4.0
same,Preemergence herbicidal rating ZEAMX,"ZEAMX (Corn, Field) [5]; rate 0.2500 kg/ha",7.0
same,Herbicidal rating CYPSE,CYPSE (Flatsedge) [6]; Rate 0.1250 kg/ha,2.0
same,Herbicidal rating CYPSE,CYPSE (Flatsedge) [6]; Rate 0.2500 kg/ha,4.0
same,ORYSAT herbicidal rating,"ORYSAT (Rice, Tebonnet); rate 0.0158 kg/ha",2.5
same,ORYSAT herbicidal rating,"ORYSAT (Rice, Tebonnet); rate 0.0315 kg/ha",3.0
same,ORYSAT herbicidal rating,"ORYSAT (Rice, Tebonnet); rate 0.0630 kg/ha",4.0
same,Herbicidal rating ECHORC,[7]; Rate 0.1250 kg/ha,3.0
same,Herbicidal rating ECHORC,[7]; Rate 0.2500 kg/ha,7.0
same,Preemergence herbicidal rating SETVI,"SETVI (Foxtail, Green) [8]; rate 0.0156 kg/ha",0.0
same,Preemergence herbicidal rating SETVI,"SETVI (Foxtail, Green) [8]; rate 0.0313 kg/ha",1.0
same,Preemergence herbicidal rating SETVI,"SETVI (Foxtail, Green) [8]; rate 0.0625 kg/ha",0.0
same,Preemergence herbicidal rating SETVI,"SETVI (Foxtail, Green) [8]; rate 0.1250 kg/ha",9.0
same,Preemergence herbicidal rating SETVI,"SETVI (Foxtail, Green) [8]; rate 0.2500 kg/ha",9.0
same,Herbicidal rating SAGPY,[9]; Rate 0.1250 kg/ha,3.0
same,Herbicidal rating SAGPY,[9]; Rate 0.2500 kg/ha,4.0
same,CYPSE herbicidal effect rating,CYPSE (Flatsedge) [10]; 0.1250 kg/ha,2.0
same,CYPSE herbicidal effect rating,CYPSE (Flatsedge) [10]; 0.2500 kg/ha,4.0
same,CYPIR herbicidal effect rating,CYPIR (Rice Flatsedge) [11]; 0.1250 kg/ha,0.0
same,CYPIR herbicidal effect rating,CYPIR (Rice Flatsedge) [11]; 0.2500 kg/ha,6.0
same,ECHORC herbicidal effect rating,[12]; 0.1250 kg/ha,3.0
same,ECHORC herbicidal effect rating,[12]; 0.2500 kg/ha,7.0
"CCOC(=O)[C@H](C)N1C(=O)CSC1=Nc1cc(-n2c(=O)cc(C(F)(F)F)n(C)c2=O)c(F)cc1Cl [Compound 76, Ethyl 2-{{2-chloro-5-[3,6-dihydro-3-methyl-2,6-dioxo-4-(trifluoromethyl)-1(2H)-pyrimidinyl]-4-fluorophenyl}imino}-α-methyl-4-oxo-3-thiazolidineacetate, L-]",Preemergence herbicidal rating TRZAWR,[1]; rate 0.0156 kg/ha,0.0
same,Preemergence herbicidal rating TRZAWR,[1]; rate 0.0313 kg/ha,0.0
same,Preemergence herbicidal rating TRZAWR,[1]; rate 0.0625 kg/ha,3.0
same,Preemergence herbicidal rating TRZAWR,[1]; rate 0.1250 kg/ha,7.0
same,Preemergence herbicidal rating TRZAWR,[1]; rate 0.2500 kg/ha,9.0
same,SETVI herbicidal rating,"SETVI (Foxtail, Green) [2]; rate 0.0158 kg/ha",1.0
same,SETVI herbicidal rating,"SETVI (Foxtail, Green) [2]; rate 0.0315 kg/ha",2.0
same,SETVI herbicidal rating,"SETVI (Foxtail, Green) [2]; rate 0.0630 kg/ha",9.0
same,Preemergence herbicidal rating ECHCG,ECHCG (Barnyardgrass); rate 0.0156 kg/ha,0.0
same,Preemergence herbicidal rating ECHCG,ECHCG (Barnyardgrass); rate 0.0313 kg/ha,0.0
same,Preemergence herbicidal rating ECHCG,ECHCG (Barnyardgrass); rate 0.0625 kg/ha,1.0
same,Preemergence herbicidal rating ECHCG,ECHCG (Barnyardgrass); rate 0.1250 kg/ha,7.0
same,Preemergence herbicidal rating ECHCG,ECHCG (Barnyardgrass); rate 0.2500 kg/ha,9.0
same,Herbicidal rating CYPIR,CYPIR (Rice Flatsedge) [3]; Rate 0.0313 kg/ha,0.0
same,Herbicidal rating CYPIR,CYPIR (Rice Flatsedge) [3]; Rate 0.0625 kg/ha,0.0
same,Herbicidal rating CYPIR,CYPIR (Rice Flatsedge) [3]; Rate 0.1250 kg/ha,0.0
same,Herbicidal rating CYPIR,CYPIR (Rice Flatsedge) [3]; Rate 0.2500 kg/ha,6.0
same,ZEAMX herbicidal rating,"ZEAMX (Corn, Field) [4]; rate 0.0158 kg/ha",4.5
same,ZEAMX herbicidal rating,"ZEAMX (Corn, Field) [4]; rate 0.0315 kg/ha",6.0
same,ZEAMX herbicidal rating,"ZEAMX (Corn, Field) [4]; rate 0.0630 kg/ha",7.0
same,Preemergence herbicidal rating ZEAMX,"ZEAMX (Corn, Field) [5]; rate 0.0156 kg/ha",0.0
same,Preemergence herbicidal rating ZEAMX,"ZEAMX (Corn, Field) [5]; rate 0.0313 kg/ha",1.0
same,Preemergence herbicidal rating ZEAMX,"ZEAMX (Corn, Field) [5]; rate 0.0625 kg/ha",5.0
same,Preemergence herbicidal rating ZEAMX,"ZEAMX (Corn, Field) [5]; rate 0.1250 kg/ha",7.0
same,Preemergence herbicidal rating ZEAMX,"ZEAMX (Corn, Field) [5]; rate 0.2500 kg/ha",7.0
same,Herbicidal rating CYPSE,CYPSE (Flatsedge) [6]; Rate 0.0313 kg/ha,2.0
same,Herbicidal rating CYPSE,CYPSE (Flatsedge) [6]; Rate 0.0625 kg/ha,2.0
same,Herbicidal rating CYPSE,CYPSE (Flatsedge) [6]; Rate 0.1250 kg/ha,2.0
same,Herbicidal rating CYPSE,CYPSE (Flatsedge) [6]; Rate 0.2500 kg/ha,3.0
same,ORYSAT herbicidal rating,"ORYSAT (Rice, Tebonnet); rate 0.0158 kg/ha",3.0
same,ORYSAT herbicidal rating,"ORYSAT (Rice, Tebonnet); rate 0.0315 kg/ha",4.0
same,ORYSAT herbicidal rating,"ORYSAT (Rice, Tebonnet); rate 0.0630 kg/ha",5.0
same,Herbicidal rating ECHORC,[7]; Rate 0.0313 kg/ha,4.0
same,Herbicidal rating ECHORC,[7]; Rate 0.0625 kg/ha,7.0
same,Herbicidal rating ECHORC,[7]; Rate 0.1250 kg/ha,9.0
same,Herbicidal rating ECHORC,[7]; Rate 0.2500 kg/ha,9.0
same,Preemergence herbicidal rating SETVI,"SETVI (Foxtail, Green) [8]; rate 0.0156 kg/ha",0.0
same,Preemergence herbicidal rating SETVI,"SETVI (Foxtail, Green) [8]; rate 0.0313 kg/ha",6.0
same,Preemergence herbicidal rating SETVI,"SETVI (Foxtail, Green) [8]; rate 0.0625 kg/ha",7.0
same,Preemergence herbicidal rating SETVI,"SETVI (Foxtail, Green) [8]; rate 0.1250 kg/ha",9.0
same,Preemergence herbicidal rating SETVI,"SETVI (Foxtail, Green) [8]; rate 0.2500 kg/ha",9.0
same,Herbicidal rating SAGPY,[9]; Rate 0.0313 kg/ha,0.0
same,Herbicidal rating SAGPY,[9]; Rate 0.0625 kg/ha,0.0
same,Herbicidal rating SAGPY,[9]; Rate 0.1250 kg/ha,4.0
same,Herbicidal rating SAGPY,[9]; Rate 0.2500 kg/ha,4.0
same,CYPSE herbicidal effect rating,CYPSE (Flatsedge) [10]; 0.0313 kg/ha,2.0
same,CYPSE herbicidal effect rating,CYPSE (Flatsedge) [10]; 0.0625 kg/ha,2.0
same,CYPSE herbicidal effect rating,CYPSE (Flatsedge) [10]; 0.1250 kg/ha,2.0
same,CYPSE herbicidal effect rating,CYPSE (Flatsedge) [10]; 0.2500 kg/ha,3.0
same,CYPIR herbicidal effect rating,CYPIR (Rice Flatsedge) [11]; 0.0313 kg/ha,0.0
same,CYPIR herbicidal effect rating,CYPIR (Rice Flatsedge) [11]; 0.0625 kg/ha,0.0
same,CYPIR herbicidal effect rating,CYPIR (Rice Flatsedge) [11]; 0.1250 kg/ha,0.0
same,CYPIR herbicidal effect rating,CYPIR (Rice Flatsedge) [11]; 0.2500 kg/ha,6.0
same,ECHORC herbicidal effect rating,[12]; 0.0313 kg/ha,4.0
same,ECHORC herbicidal effect rating,[12]; 0.0625 kg/ha,7.0
same,ECHORC herbicidal effect rating,[12]; 0.1250 kg/ha,9.0
same,ECHORC herbicidal effect rating,[12]; 0.2500 kg/ha,9.0
